Data as given in patent EP0726263A2, “Herbicidal (1,3,4)oxadiazoles and thiadiazoles” (American Cyanamid Company, priority 1995, dated 1996).

Columns and labels:
Format in all cases: in vivo
Matricaria inodora [1] = test: Herbicidal activity, preemergence test; conditions: pre; sprayed onto soil, 800 g of active material per hectare; evaluated 3 weeks after treatment
Summary of the method: (§1)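 Acetone/TRITON X-155 formulation diluted in water, sprayed onto horticultural loam soon after sowing at 800 g active material per hectare in 900 litres per hectare. Visual 0-9 rating of stand, vigor, malformation, size and chlorosis versus untreated sown soil, scored 3 weeks after treatment.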

Galium aparine [2] = test: Herbicidal activity, preemergence test; conditions: pre; sprayed onto soil, 800 g of active material per hectare; evaluated 3 weeks after treatment
Summary of the method: as §1

Gossypium hirsutum [3] = test: Herbicidal activity, preemergence test; conditions: pre; sprayed onto soil, 800 g of active material per hectare; evaluated 3 weeks after treatment
Summary of the method: as §1

Ambrosia artemisifolia [4] = test: Herbicidal activity, preemergence test; conditions: pre; sprayed onto soil, 800 g of active material per hectare; evaluated 3 weeks after treatment
Summary of the method: as §1

Ipomoea hederacea [5] = test: Herbicidal activity, preemergence test; conditions: pre; sprayed onto soil, 800 g of active material per hectare; evaluated 3 weeks after treatment
Summary of the method: as §1

Chenopodium album [6] = test: Herbicidal activity, preemergence test; conditions: pre; sprayed onto soil, 800 g of active material per hectare; evaluated 3 weeks after treatment
Summary of the method: as §1

Setaria viridis [7] = test: Herbicidal activity, preemergence test; conditions: pre; sprayed onto soil, 800 g of active material per hectare; evaluated 3 weeks after treatment
Summary of the method: as §1

Alopecurus myosuroides [8] = test: Herbicidal activity, preemergence test; conditions: pre; sprayed onto soil, 800 g of active material per hectare; evaluated 3 weeks after treatment
Summary of the method: as §1

Veronica persica [9] = test: Herbicidal activity, preemergence test; conditions: pre; sprayed onto soil, 800 g of active material per hectare; evaluated 3 weeks after treatment
Summary of the method: as §1

Zea mays [10] = test: Herbicidal activity, preemergence test; conditions: pre; sprayed onto soil, 800 g of active material per hectare; evaluated 3 weeks after treatment
Summary of the method: as §1

Glycine max [11] = test: Herbicidal activity, preemergence test; conditions: pre; sprayed onto soil, 800 g of active material per hectare; evaluated 3 weeks after treatment
Summary of the method: as §1

Hordeum vulgare [12] = test: Herbicidal activity, preemergence test; conditions: pre; sprayed onto soil, 800 g of active material per hectare; evaluated 3 weeks after treatment
Summary of the method: as §1

Amaranthus retroflexus [13] = test: Herbicidal activity, preemergence test; conditions: pre; sprayed onto soil, 800 g of active material per hectare; evaluated 3 weeks after treatment
Summary of the method: as §1

Abutilon theophrasti [14] = test: Herbicidal activity, preemergence test; conditions: pre; sprayed onto soil, 800 g of active material per hectare; evaluated 3 weeks after treatment
Summary of the method: as §1

Lamium purpureum [15] = test: Herbicidal activity, preemergence test; conditions: pre; sprayed onto soil, 800 g of active material per hectare; evaluated 3 weeks after treatment
Summary of the method: as §1

Papaver rhoeas [16] = test: Herbicidal activity, preemergence test; conditions: pre; sprayed onto soil, 800 g of active material per hectare; evaluated 3 weeks after treatment
Summary of the method: as §1

Triticum aestivum [17] = test: Herbicidal activity, preemergence test; conditions: pre; sprayed onto soil, 800 g of active material per hectare; evaluated 3 weeks after treatment
Summary of the method: as §1

Stellaria media [18] = test: Herbicidal activity, preemergence test; conditions: pre; sprayed onto soil, 800 g of active material per hectare; evaluated 3 weeks after treatment
Summary of the method: as §1

Matricaria inodora [19] = test: Herbicidal activity, postemergence test; conditions: post; sprayed onto seedling plants, 800 g of active material per hectare; evaluated 2 weeks after treatment
Summary of the method: (§2)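 Spray dose 800 g a.i./ha in 900 L/ha; acetone stock with 0.4% Triton X-155, water-diluted. Pre: sown loam soil, read at 3 wk. Post: seedling plants, read at 2 wk. Visual 0-9 rating vs untreated.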

Galium aparine [20] = test: Herbicidal activity, postemergence test; conditions: post; sprayed onto seedling plants, 800 g of active material per hectare; evaluated 2 weeks after treatment
Summary of the method: as §2

Gossypium hirsutum [21] = test: Herbicidal activity, postemergence test; conditions: post; sprayed onto seedling plants, 800 g of active material per hectare; evaluated 2 weeks after treatment
Summary of the method: as §2

Ambrosia artemisifolia [22] = test: Herbicidal activity, postemergence test; conditions: post; sprayed onto seedling plants, 800 g of active material per hectare; evaluated 2 weeks after treatment
Summary of the method: as §2

Ipomoea hederacea [23] = test: Herbicidal activity, postemergence test; conditions: post; sprayed onto seedling plants, 800 g of active material per hectare; evaluated 2 weeks after treatment
Summary of the method: as §2

Chenopodium album [24] = test: Herbicidal activity, postemergence test; conditions: post; sprayed onto seedling plants, 800 g of active material per hectare; evaluated 2 weeks after treatment
Summary of the method: as §2

Setaria viridis [25] = test: Herbicidal activity, postemergence test; conditions: post; sprayed onto seedling plants, 800 g of active material per hectare; evaluated 2 weeks after treatment
Summary of the method: as §2

Alopecurus myosuroides [26] = test: Herbicidal activity, postemergence test; conditions: post; sprayed onto seedling plants, 800 g of active material per hectare; evaluated 2 weeks after treatment
Summary of the method: as §2

Veronica persica [27] = test: Herbicidal activity, postemergence test; conditions: post; sprayed onto seedling plants, 800 g of active material per hectare; evaluated 2 weeks after treatment
Summary of the method: as §2

Zea mays [28] = test: Herbicidal activity, postemergence test; conditions: post; sprayed onto seedling plants, 800 g of active material per hectare; evaluated 2 weeks after treatment
Summary of the method: as §2

Glycine max [29] = test: Herbicidal activity, postemergence test; conditions: post; sprayed onto seedling plants, 800 g of active material per hectare; evaluated 2 weeks after treatment
Summary of the method: as §2

Hordeum vulgare [30] = test: Herbicidal activity, postemergence test; conditions: post; sprayed onto seedling plants, 800 g of active material per hectare; evaluated 2 weeks after treatment
Summary of the method: as §2

Amaranthus retroflexus [31] = test: Herbicidal activity, postemergence test; conditions: post; sprayed onto seedling plants, 800 g of active material per hectare; evaluated 2 weeks after treatment
Summary of the method: as §2

Abutilon theophrasti [32] = test: Herbicidal activity, postemergence test; conditions: post; sprayed onto seedling plants, 800 g of active material per hectare; evaluated 2 weeks after treatment
Summary of the method: as §2

Lamium purpureum [33] = test: Herbicidal activity, postemergence test; conditions: post; sprayed onto seedling plants, 800 g of active material per hectare; evaluated 2 weeks after treatment
Summary of the method: as §2

Papaver rhoeas [34] = test: Herbicidal activity, postemergence test; conditions: post; sprayed onto seedling plants, 800 g of active material per hectare; evaluated 2 weeks after treatment
Summary of the method: as §2

Triticum aestivum [35] = test: Herbicidal activity, postemergence test; conditions: post; sprayed onto seedling plants, 800 g of active material per hectare; evaluated 2 weeks after treatment
Summary of the method: as §2

Stellaria media [36] = test: Herbicidal activity, postemergence test; conditions: post; sprayed onto seedling plants, 800 g of active material per hectare; evaluated 2 weeks after treatment
Summary of the method: as §2

SMILES | MATIN control rating (0-9) (Matricaria inodora [1]) | GALAP control rating (0-9) (Galium aparine [2]) | GOSHI control rating (0-9) (Gossypium hirsutum [3]) | AMBEL control rating (0-9) (Ambrosia artemisifolia [4]) | IPOHE control rating (0-9) (Ipomoea hederacea [5]) | CHEAL control rating (0-9) (Chenopodium album [6]) | SETVI control rating (0-9) (Setaria viridis [7]) | ALOMY control rating (0-9) (Alopecurus myosuroides [8]) | VERPE control rating (0-9) (Veronica persica [9]) | ZEAMX control rating (0-9) (Zea mays [10]) | GLXMA control rating (0-9) (Glycine max [11]) | HORVW control rating (0-9) (Hordeum vulgare [12]) | AMARE control rating (0-9) (Amaranthus retroflexus [13]) | ABUTH control rating (0-9) (Abutilon theophrasti [14]) | LAMPU control rating (0-9) (Lamium purpureum [15]) | PAPRH control rating (0-9) (Papaver rhoeas [16]) | TRZAW control rating (0-9) (Triticum aestivum [17]) | STEME control rating (0-9) (Stellaria media [18]) | MATIN control rating (0-9) (Matricaria inodora [19]) | GALAP control rating (0-9) (Galium aparine [20]) | further results
C[C@H](NC(=O)c1nnc(C=Cc2ccccc2)o1)c1ccccc1 [Example 17] | 0 (no effect) | 0 (no effect) | 9 (complete kill) | 0 (no effect) | 0 (no effect) | 0 (no effect) | 0 (no effect) | 0 (no effect) | 3 (moderate effect) | 0 (no effect) | 0 (no effect) | 0 (no effect) | 0 (no effect) | 0 (no effect) | 0 (no effect) | 5 (definite injury) | 0 (no effect) | 0 (no effect) | 0 (no effect) | 2 (slight effect) | GOSHI control rating (0-9) (Gossypium hirsutum [21]): 3 (moderate effect); AMBEL control rating (0-9) (Ambrosia artemisifolia [22]): 0 (no effect); IPOHE control rating (0-9) (Ipomoea hederacea [23]): 1 (trace effect); CHEAL control rating (0-9) (Chenopodium album [24]): 5 (definite injury); SETVI control rating (0-9) (Setaria viridis [25]): 0 (no effect); ALOMY control rating (0-9) (Alopecurus myosuroides [26]): 0 (no effect); VERPE control rating (0-9) (Veronica persica [27]): 3 (moderate effect); ZEAMX control rating (0-9) (Zea mays [28]): 1 (trace effect); GLXMA control rating (0-9) (Glycine max [29]): 0 (no effect); HORVW control rating (0-9) (Hordeum vulgare [30]): 0 (no effect); AMARE control rating (0-9) (Amaranthus retroflexus [31]): 4 (injury); ABUTH control rating (0-9) (Abutilon theophrasti [32]): 1 (trace effect); LAMPU control rating (0-9) (Lamium purpureum [33]): 6 (herbicidal effect); PAPRH control rating (0-9) (Papaver rhoeas [34]): 5 (definite injury); TRZAW control rating (0-9) (Triticum aestivum [35]): 0 (no effect); STEME control rating (0-9) (Stellaria media [36]): 0 (no effect)
COc1ccc(-c2nnc(C(=O)N[C@@H](C)c3ccccc3)o2)cc1 [Example 19] | 7 (good herbicidal effect) | 0 (no effect) | 0 (no effect) | 0 (no effect) | 0 (no effect) | 9 (complete kill) | 7 (good herbicidal effect) | 0 (no effect) | 9 (complete kill) | 0 (no effect) | 0 (no effect) | 0 (no effect) | 9 (complete kill) | 1 (trace effect) | 8 (approaching complete kill) | 9 (complete kill) | 0 (no effect) | 6 (herbicidal effect) | 6 (herbicidal effect) | 5 (definite injury) | GOSHI control rating (0-9) (Gossypium hirsutum [21]): 9 (complete kill); AMBEL control rating (0-9) (Ambrosia artemisifolia [22]): 7 (good herbicidal effect); IPOHE control rating (0-9) (Ipomoea hederacea [23]): 6 (herbicidal effect); CHEAL control rating (0-9) (Chenopodium album [24]): 8 (approaching complete kill); SETVI control rating (0-9) (Setaria viridis [25]): 9 (complete kill); ALOMY control rating (0-9) (Alopecurus myosuroides [26]): 3 (moderate effect); VERPE control rating (0-9) (Veronica persica [27]): 9 (complete kill); ZEAMX control rating (0-9) (Zea mays [28]): 3 (moderate effect); GLXMA control rating (0-9) (Glycine max [29]): 4 (injury); HORVW control rating (0-9) (Hordeum vulgare [30]): 3 (moderate effect); AMARE control rating (0-9) (Amaranthus retroflexus [31]): 8 (approaching complete kill); ABUTH control rating (0-9) (Abutilon theophrasti [32]): 9 (complete kill); LAMPU control rating (0-9) (Lamium purpureum [33]): 8 (approaching complete kill); PAPRH control rating (0-9) (Papaver rhoeas [34]): 7 (good herbicidal effect); TRZAW control rating (0-9) (Triticum aestivum [35]): 2 (slight effect); STEME control rating (0-9) (Stellaria media [36]): 8 (approaching complete kill)
